Measured values from patent US20140335021A1, “Ocular Neostigmine Drops for Diagnosing Myasthenia Gravis” (priority 2013, published 2014).

What was measured:
[1] = system: New Zealand White rabbits; experiment: Pupillary size after ocular instillation of neostigmine solution in rabbits; assay type: in vivo, rabbit; conditions: for mean [SD] pupillary size, right eye: saline left eye 7.0 mm, p=0.0001
Protocol: (§1) 2) experiments in which the standard IV neostigmine solution was instilled into both eyes of patients with probable or definite symptomatic MG.
(§2) Both sets of experiments used the standard neostigmine (2.5 mg/ml) solution available in hospitals for anesthetic/surgical use for reversal of neuromuscular block. This solution is buffered and FDA-approved for use in humans. In both sets of experiments, one drop of this solution was used in an eye, limiting substantially the amount of drug that might be absorbed systemically.
Male New Zealand White rabbits (2.5-3.0 kg body weight) were used in all experiments. The animals were kept in a room of controlled room temperature (24.0+1.0° C.) and humidity and a fixed dark light cycle (light on at 7:00 am and off at 19:00 pm).
The sterile neostigmine solution (2.5 mg/ml) was instilled into the right eye (one drop), while the control eye (left eye) received one drop of sterile saline (0.9% sodium chloride). Assessment of pupillary size was done at 30 minute intervals following instillation of neostigmine. The left eye of each rabbit acted as control for the right one.
The amount of neostigmine methylsulphate was calculated to be 0.1 mg/drop. Therefore, each rabbit's eye was instilled by 0.1 mg of sterile neostigmine methylsulphate. The sterile dropper for instilling neostigmine was used only once and then discarded. To prevent the drop of neostigmine from leaking out of the rabbit's eye, the lower eye lid of the rabbits was held out for at least 2-3 minutes in order to keep the drop inside the eye and allow for better absorption of the drug through the cornea.
(§3) The pupil size of both the right and left eyes of each rabbit was measured at baseline in mms by using a plastic ruler. After instilling the neostigmine solution (right eye) or saline (left eye), the pupil size was measured again at 30 minute intervals following drug or saline instillation. One drop of neostimine was instilled daily for 7 days and signs of ocular inflammation were observed.
The mean values for the pupil sizes of the right eyes were recorded as well as those of the left eyes, separately. Paired t-test was used for comparison of data among the different groups on SPSS software. A probability value of <0.05 was considered to be significant.

[2] = system: New Zealand White rabbits; experiment: Ocular inflammation on daily instillation for 7 days in rabbits; assay type: in vivo; conditions: one drop daily for 7 days, rabbit eye
Protocol: as §1, §3

[3] = system: patients with probable or definite MG; experiment: Ocular neostigmine drop test for ptosis in patients with probable or definite myasthenia gravis; assay type: in vivo, human
Protocol: as §1, §2
Patients with probable or definite MG were asked to sign informed consent approved by the appropriate Institutional Ethics Committees. Ptosis was recorded photographically, and pulse and blood pressure were also recorded prior to beginning the test. One drop of standard IV neostigmine solution (2.5 mg/ml) was instilled into each symptomatic eye of the patient. Fifteen minutes later, possible changes in ptosis were assessed. Pulse and blood pressure was recorded again and after another 15 minutes. At 30 minutes, the patient was evaluated also for possible changes in ptosis (documented by photography), obvious irritation of either eye and for report of discomfort.
Six patients (3 males and 3 females) who presented with ptosis and/or ocular motility disturbance were enrolled in the study. Their ages ranged between 4.5 and 55 years (median=42 years, mean=36.4 years). […]

SMILES: CN(C)C(=O)Oc1cccc([N+](C)(C)C)c1 [neostigmine, 3-(trimethylamino)phenyl N,N-dimethylcarbamate]
- pupil diameter, right eye, representative rabbit (FIG. 2) ([1]; 1 week after daily instillation of 1 drop, last drop 24 hours previously): 6.0 mm
- pupil diameter, right eye, representative rabbit (FIG. 2) ([1]; 30 mins post neostigmine, pre 6.0 mm): 2.0 mm
- mean [SD] pupillary size, right eye ([1]; 30 minutes after one drop of 2.5 mg/ml solution (0.1 mg) in right eye, 30 rabbits): 4.8 mm
- pupil diameter, right eye, representative rabbit (FIG. 2) ([1]; 60 mins post neostigmine, pre 6.0 mm): 1.5 mm
- mean [SD] pupillary size, right eye ([1]; 60 minutes after one drop of 2.5 mg/ml solution (0.1 mg) in right eye): 4.8 mm
- ocular inflammation [2]: no ocular inflammation
- response of ptosis (palpebral fissure height) ([3]; 3 patients with no prior treatment for MG (Patients 1, 2 and 5)): dramatic
- increase of the palpebral fissure height ([3]; all 6 patients with MG, 30 minutes after instillation of one drop 2.5 mg/ml per symptomatic eye): at least 2 mm
